The values that follow come from patent publication US20230091047A1 (priority 2019, published 2023).

One data set is described as follows: in vitro. It is filed as cell-based. Particulars: human, HepG2 or HepG2.117 cells, ATPlite, mean value. The method, boiled down: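 Luminescent ATP quantitation served as the viability endpoint following a 3- or 4-day incubation with test compounds.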
On the technique in general: Cellular ATP, detected with luciferase, serves as a proxy for viable cell number.

The subject of data set [1] is HBV (HepG2.117 cell line, inducibly HBV producing). The data set can be described thus: Anti-HBV activity: intracellular HBV DNA by real-time PCR in HepG2.117 cells after 3 days of treatment. Type of data set: cell-based, hepatitis B virus. The method, boiled down: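 Inducible HBV-producing HepG2.117 line (Tet-off); 3-day exposure to serially diluted compound after induction; real-time PCR of intracellular viral DNA.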
(Quantitative PCR measures a nucleic acid by following its amplification.)

Setting [2] is: 3-days incubation (unmarked values).
The mark [3] stands for this setting: Hepatitis B virus, HepG2.117, 72 h, HepG2.117 cells, 3 days of treatment, intracellular HBV DNA by real-time PCR; mean value; read-out: EC50 (μM, mean value).
Setting [4] is: 3-days incubation (not marked with *).
Setting [5] is: Hepatitis B virus, HepG2.117, 72 h, HepG2.117 cells, intracellular HBV DNA by real-time PCR, 3 days of treatment, mean value; read-out: EC50 (μM, mean value).

Each structure is given as a SMILES string. Read-outs that look alike come from different tables or passages of the source.

What is called CC50 is the concentration giving 50% cytotoxicity. Higher therefore signals lower toxicity to the cells. By EC50 is commonly meant the concentration needed to bring the measured effect to its halfway point. In turn, `CNC(=O)c1ccc(-n2c(N[C@H](C)C3CC3)nc3c(c2=O)C[C@@H](C)N(C(=O)c2ccc(Cl)c(Cl)c2)C3)cc1` [Compound C295, 4-[(6R)-2-{[(1R)-1-cyclopropylethyl]amino}-7-(3,4-dichlorobenzoyl)-6-methyl-4-oxo-5,6,7,8-tetrahydropyrido[3,4-d]pyrimidin-3(4H)-yl]-N-methylbenzamide] yielded a half-maximal cytotoxic concentration (CC50) at 3 days in the data set “in vitro” (setting [2]) of 37.2 µM. Besides, in data set [1] (setting [3]), the 50% effective concentration (EC50) came out at 0.22 µM.
The molecule `CC(C)Nc1nc2c(c(=O)n1-c1ccc(S(C)(=O)=O)cc1)CC(C)N(C(=O)c1ccc(Cl)c(Cl)c1)C2` (centres unmarked) [Compound C100, 7-(3,4-dichlorobenzoyl)-3-[4-(methanesulfonyl)phenyl]-6-methyl-2-[(propan-2-yl)amino]-5,6,7,8-tetrahydropyrido[3,4-d]pyrimidin-4(3H)-one] had a CC50 at 3 days in the data set “in vitro” (setting [2]) greater than 25 µM. In addition, in data set [1] (setting [3]), the concentration giving a half-maximal response (EC50) came out at 0.51 µM.
The corresponding values for `CNC(=O)c1ccc(-n2c(N3CCC[C@H]3C3CC3)nc3c(c2=O)C[C@@H](C)N(C(=O)c2ccc(Cl)c(Cl)c2)C3)cc1` (single isomer, unassigned) [Compound C353, 4-[(6R)-2-[(2*S)-2-cyclopropylpyrrolidin-1-yl]-7-(3,4-dichlorobenzoyl)-6-methyl-4-oxo-5,6,7,8-tetrahydropyrido[3,4-d]pyrimidin-3(4H)-yl]-N-methylbenzamide] are 19.5 µM and 0.11 µM.
Molecule `CNC(=O)c1ccc(-n2c(NC(C)C)nc3c(c2=O)C[C@@H](C)N(C(=O)c2ccc4nnn(C)c4c2)C3)cc1` [Compound C474] showed a CC50 at 3 days in “in vitro” (setting [4]) greater than 50 µM. Further, in data set [1] (setting [5]), the EC50 is greater than 25 µM.
For `CNC(=O)c1cc(-n2c(O)nc3c(c2=O)C[C@@H](C)N(C(=O)c2ccc(Cl)c(C(F)(F)F)c2)C3)n(C)n1` [Compound C653] the same measures were greater than 50 µM and greater than 2.5 µM.
As to `CNC(=O)c1ccc(-n2c(NC(C)C)nc3c(c2=O)C[C@@H](C)N(C(=O)c2ccc(C)c(F)c2)C3)cc1` [Compound C515], the CC50 at 3 days in the data set “in vitro” (setting [4]) is greater than 50 µM. In data set [1] (setting [5]), the EC50 was determined as 1.14 µM.
The corresponding values for `CNC(=O)c1cc(-n2c(N[C@@H](C)c3ccc(F)cc3)nc3c(c2=O)C[C@@H](C)N(C(=O)c2ccc(Cl)c(Cl)c2)C3)[nH]n1` [Compound C432] are 21.4 µM and 0.1 µM.
In the data set “in vitro” (setting [4]), `CNc1noc2cc(-n3c(N[C@@H](C)c4ccc(C(F)(F)F)cc4)nc4c(c3=O)C[C@@H](C)N(C(=O)c3ccc(Cl)c(Cl)c3)C4)ccc12` [Compound C612, (R)-7-(3,4-dichlorobenzoyl)-6-methyl-3-(3-(methylamino)-benzo[d]isoxazol-6-yl)-2-(((S)-1-(4-(trifluoromethyl)phenyl)ethyl)amino)-5,6,7,8-tetrahydropyrido[3,4-d]pyrimidin-4(3H)-one] registered a cytotoxic concentration (CC50) at 3 days greater than 50 µM. Besides, in data set [1] (setting [5]), the EC50 stood at 0.14 µM.
Consider `CNC(=O)c1ccc(-n2c(NC(C)(C)C3CC3)nc3c(c2=O)C[C@@H](C)N(C(=O)c2ccc(Cl)c(Cl)c2)C3)cc1` [Compound C396], for which the CC50 at 3 days in “in vitro” (setting [4]) came to 39.5 µM. Besides, the EC50 in data set [1] (setting [5]) was found to be 0.08 µM.
`CNC(=O)c1ccc(-n2c(NCc3c[nH]c4ccccc34)nc3c(c2=O)C[C@@H](C)N(C(=O)c2ccc(Cl)c(Cl)c2)C3)cc1` [Compound C277, 4-[(6R)-7-(3,4-dichlorobenzoyl)-2-{[(1H-indol-3-yl)methyl]amino}-6-methyl-4-oxo-5,6,7,8-tetrahydropyrido[3,4-d]pyrimidin-3(4H)-yl]-N-methylbenzamide] came in with a half-maximal cytotoxic concentration (CC50) at 3 days in “in vitro” (setting [2]) of 40.1 µM. For the same molecule, the EC50 in data set [1] (setting [3]) amounted to 1.27 µM.
`CNC(=O)c1ccc(-n2c(NC(C)C)nc3c(c2=O)C[C@@H](C)N(C(=O)c2cc4ccc(OC)cc4n2C)C3)cc1` [Compound C516]: the cytotoxic concentration (CC50) at 3 days in “in vitro” (setting [4]) is greater than 50 µM. In addition, the half-maximal effective concentration (EC50) in data set [1] (setting [5]) is 2.68 µM.
Consider `CC(C)Nc1nc2c(c(=O)n1-c1ccc(-c3nccn3C)cc1)C[C@@H](C)N(C(=O)c1ccc(Cl)c(Cl)c1)C2` [Compound C192, (6R)-7-(3,4-dichlorobenzoyl)-6-methyl-3-[4-(1-methyl-1H-imidazol-2-yl)phenyl]-2-[(propan-2-yl)amino]-5,6,7,8-tetrahydropyrido[3,4-d]pyrimidin-4(3H)-one], for which the CC50 at 3 days in “in vitro” (setting [2]) is 36.1 µM. Further, the EC50 in data set [1] (setting [3]) is 0.13 µM.
Consider `CNC(=O)c1ccc(-n2c(N3CC[C@H]3c3ccccc3)nc3c(c2=O)C[C@@H](C)N(C(=O)c2ccc(Cl)c(Cl)c2)C3)cc1` (single isomer, unassigned) [Compound C349, 4-[(6R)-7-(3,4-dichlorobenzoyl)-6-methyl-4-oxo-2-[(2*S)-2-phenylazetidin-1-yl]-5,6,7,8-tetrahydropyrido[3,4-d]pyrimidin-3(4H)-yl]-N-methylbenzamide], for which it took 31.7 µM to reach half-maximal cytotoxicity in the data set “in vitro” (setting [2]) (CC50 at 3 days). Besides, the EC50 in data set [1] (setting [3]) turned out to be 0.32 µM.
Turning to `CNC(=O)c1n[nH]c(-n2c(NC(C)C)nc3c(c2=O)C[C@@H](C)N(C(=O)c2ccc(Cl)c(Cl)c2)C3)c1Cl` [Compound C692], in “in vitro” (setting [4]), the CC50 at 3 days is greater than 50 µM. Also, the EC50 in data set [1] (setting [5]) was 0.07 µM.
For `CNC(=O)c1ccc(-n2c(N[C@@H](C)c3ccc(C(F)(F)F)cc3)nc3c(c2=O)C[C@@H](C)N(C(=O)c2ccc(Cl)c(Cl)c2)C3)cn1` [Compound C533] the same measures were greater than 50 µM and 0.11 µM.
For `CNc1noc2cc(-n3c(N[C@@H](C)c4ccc(OC(F)(F)F)cc4)nc4c(c3=O)C[C@@H](C)N(C(=O)c3ccc(Cl)c(Cl)c3)C4)ccc12` [Compound C616] the same measures were greater than 50 µM and 0.19 µM.
In the case of `COc1ccc(CNc2nc3c(c(=O)[nH]2)CCN(C(=O)c2ccc(Br)c(C)c2)C3)cc1` [Compound C104, 7-(4-bromo-3-methylbenzoyl)-2-{[(4-methoxyphenyl)methyl]amino}-5,6,7,8-tetrahydropyrido[3,4-d]pyrimidin-4(3H)-one], the midpoint of cytotoxicity in the data set “in vitro” (setting [2]), the CC50 at 3 days, lay at 24.1 µM. Further, the half-maximal effective concentration (EC50) in data set [1] (setting [3]) was found to be 1.8 µM.
As for `COc1ccccc1-n1c(NCc2ccc(C(F)(F)F)cc2)nc2c(c1=O)CCN(C(=O)c1ccc(Cl)c(Cl)c1)C2` [Compound C23, 7-(3,4-dichlorobenzoyl)-3-(2-methoxyphenyl)-2-({[4-(trifluoromethyl)phenyl]methyl}amino)-5,6,7,8-tetrahydropyrido[3,4-d]pyrimidin-4(3H)-one], the cytotoxic concentration (CC50) at 4 days in “in vitro” (4-days incubation (values marked with *)) is greater than 50 µM. In data set [1] (setting [3]), the EC50 was 2.56 µM.
On to `CNC(=O)c1ccc(-n2c(N[C@@H](C)C3CC3)nc3c(c2=O)C[C@@H](C)N(C(=O)c2ccc(Cl)c(Cl)c2)C3)c(Cl)c1` (single isomer, unassigned) [Compound C387a], for which the CC50 at 3 days in “in vitro” (setting [4]) was greater than 50 µM. In data set [1] (setting [5]), the EC50 was 0.05 µM.
In “in vitro” (setting [2]), `CC(C)Nc1nc2c(c(=O)n1-c1ccc(S(C)(=O)=O)cc1)CCN(C(=O)c1ccn3nccc3c1)C2` [Compound C138, 3-[4-(methanesulfonyl)phenyl]-2-[(propan-2-yl)amino]-7-(pyrazolo[1,5-a]pyridine-5-carbonyl)-5,6,7,8-tetrahydropyrido[3,4-d]pyrimidin-4(3H)-one] gave a half-maximal cytotoxic concentration (CC50) at 3 days greater than 50 µM. In addition, in data set [1] (setting [3]), the EC50 amounted to 5.98 µM.
For `COc1ccc(CNc2nc3c(c(=O)[nH]2)CCN(C(=O)c2ccc(Cl)c(F)c2)C3)cc1` [Compound C106, 7-(4-chloro-3-fluorobenzoyl)-2-{[(4-methoxyphenyl)methyl]amino}-5,6,7,8-tetrahydropyrido[3,4-d]pyrimidin-4(3H)-one] the same measures were 27.1 µM and 21.1 µM.
In the data set “in vitro” (setting [4]), `CNC(=O)c1ccc(-n2c(N[C@H](C)c3nccs3)nc3c(c2=O)C[C@@H](C)N(C(=O)c2ccc(Cl)c(Cl)c2)C3)cc1` (single isomer, unassigned) [Compound C434a] had a CC50 at 3 days greater than 50 µM. In addition, in data set [1] (setting [5]), the EC50 is 0.99 µM.
In the data set “in vitro” (setting [4]), `CNC(=O)c1ccc(-n2c(NC(C)C)nc3c(c2=O)C[C@@H](C)N(C(=O)c2cc4c(Br)c(F)ccc4[nH]2)C3)cc1` [Compound C572] yielded a CC50 at 3 days of 14.6 µM. For the same molecule, the concentration for a half-maximal effect (EC50) in data set [1] (setting [5]) amounted to 0.01 µM.
With `CNC(=O)c1ccc(-n2c(NC(C)C)nc3c(c2=O)C[C@@H](C)N(C(=O)c2cc(F)c(Cl)cc2F)C3)cc1` [Compound C498], the CC50 at 3 days in “in vitro” (setting [4]) is greater than 50 µM. Also, the EC50 in data set [1] (setting [5]) was found to be 2.92 µM.
The corresponding values for `CNC(=O)c1ccc(-n2c(N[C@@H](C)c3ccc(OC)cc3)nc3c(c2=O)C[C@@H](C)N(C(=O)c2ccc(Cl)c(Cl)c2)C3)cc1` (single isomer, unassigned) [Compound C347b] are greater than 50 µM and 0.27 µM.
`CNC(=O)c1ccc(-n2c(N[C@H](C)CO)nc3c(c2=O)C[C@@H](C)N(C(=O)c2ccc(Cl)c(Cl)c2)C3)cc1` [Compound C330, 4-[(6R)-7-(3,4-dichlorobenzoyl)-2-{[(2R)-1-hydroxypropan-2-yl]amino}-6-methyl-4-oxo-5,6,7,8-tetrahydropyrido[3,4-d]pyrimidin-3(4H)-yl]-N-methylbenzamide]: the CC50 at 3 days in “in vitro” (setting [2]) is greater than 50 µM. The EC50 in data set [1] (setting [3]) came out at 0.9 µM.
In turn, `CNC(=O)c1ccc(-n2c(Nc3ccnn3C)nc3c(c2=O)C[C@@H](C)N(C(=O)c2ccc(Cl)c(Cl)c2)C3)cc1` [Compound C389] displayed a CC50 at 3 days in the data set “in vitro” (setting [4]) greater than 50 µM. The concentration giving a half-maximal response (EC50) in data set [1] (setting [5]) was greater than 10 µM.
As to `CC(C)Nc1nc2c(c(=O)n1-c1ccc(S(C)(=O)=O)cc1)CCN(C(=O)c1cc3ccc(F)cc3[nH]1)C2` [Compound C137, 7-(6-fluoro-1H-indole-2-carbonyl)-3-[4-(methanesulfonyl)phenyl]-2-[(propan-2-yl)amino]-5,6,7,8-tetrahydropyrido[3,4-d]pyrimidin-4(3H)-one], the CC50 at 3 days in “in vitro” (setting [2]) was greater than 50 µM. In data set [1] (setting [3]), the concentration for a half-maximal effect (EC50) amounted to 0.3 µM.
